These results are taken from US6863895B2, “Mycobacterial sulfation pathway proteins and methods of use thereof” (priority 2001, dated 2005).

In test [1] the test system is E. coli CysC (JM81A complemented with M. tuberculosis CysC). The experiment in a line: microbe, parasite or virus in culture. In kind it is cell-based. The settings on record: Escherichia coli, read-out: percent inhibition of growth.
For test [2], the system named is E. coli CysH (JM81A complemented with M. smegmatis CysH). Put plainly: microbe, parasite or virus in culture. In kind it is cell-based. The settings on record: Escherichia coli; E. coli CysH strain; 25 μg/mL of compound; read-out: percent inhibition of growth.
In test [3] the test system is E. coli BioB (JM81A control strain containing the BioB gene). Put plainly: microbe, parasite or virus in culture. It is filed as cell-based. The settings on record: Escherichia coli, 25 μg/mL of compound, read-out: percent inhibition of growth.
Test [4] deals with T1, M. tuberculosis CysC (APS kinase) (Mycobacterium tuberculosis, UniProt P9WNM5).
T1 construct: made in house; host or cells: E. coli BL21 STAR, plasmid pET28b(+)CysC
T1 sequence (P9WNM5 442-614 limits assumed): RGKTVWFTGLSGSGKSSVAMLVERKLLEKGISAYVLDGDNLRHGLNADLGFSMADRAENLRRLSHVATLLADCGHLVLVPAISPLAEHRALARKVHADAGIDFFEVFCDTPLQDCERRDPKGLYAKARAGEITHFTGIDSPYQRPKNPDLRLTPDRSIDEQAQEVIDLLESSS
It is filed as biochemical.

The next test concerns the target APS kinase of E. coli (Escherichia coli, UniProt P0A6J1). The settings on record: cited from earlier work.

Chain of APS kinase of E. coli (P0A6J1 whole entry): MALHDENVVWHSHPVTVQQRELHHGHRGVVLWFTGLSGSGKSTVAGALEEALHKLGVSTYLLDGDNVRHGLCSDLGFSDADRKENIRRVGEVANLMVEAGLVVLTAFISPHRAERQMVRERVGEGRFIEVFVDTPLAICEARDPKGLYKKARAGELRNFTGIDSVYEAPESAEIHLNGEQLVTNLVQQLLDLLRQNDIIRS

A word on the inhibition: it is the percentage by which the read-out fell short of the control. Regarding `Nc1ccc(S(=O)(=O)Nc2cnc3ccccc3n2)cc1`, the inhibition at 25 µg/mL was 94% in test [1], 29% in test [2] and 77% in test [3].
For `O=C(O)c1ccccc1N[C@H](c1ccccc1)c1ccc2cccnc2c1O`, in that order: 93%, 25% and 1%.
Taken in the same sequence, the figures for `O=C1Oc2ccccc2C(=O)/C1=C/Nc1ncc(-c2ccc(O)c(O)c2)s1` were 78%, 90% and 0%.
`CCN(CC)CC[n+]1ccc2c(C)c3[nH]c4ccccc4c3c(C)c2c1`: the inhibition at 25 µg/mL in test [1] amounted to 98%; in test [2] it was 97%; in test [3] it was 0%.
Usually Km stands for the concentration of substrate that gives half-maximal velocity. For `Nc1ncnc2c1ncn2[C@@H]1O[C@H](COP(=O)(O)OP(=O)(O)OP(=O)(O)O)[C@@H](O)[C@H]1O` [ATP], the “apparent VmaxE0” value in test [4] was found to be 0.95 ± 0.03 s⁻¹. For the same compound, the Km in test [4] (read-out: apparent Km) was 910 ± 100 µM.
`CC(=N/Nc1nc2ccccc2s1)/N=N/c1cccc(O)c1`: the inhibition at 25 µg/mL in test [1] turned out to be 47%; in test [2], 0%; in test [3] it was 0%.
Take `[N-]=[N+]=Nc1ccc(S(=O)(=O)Nc2ncccn2)cc1`: the inhibition at 25 µg/mL in test [1] came out at 95%; in test [2], 0%; in test [3] it was 85%.
Turning to `Nc1ncnc2c1ncn2[C@@H]1O[C@H](COP(=O)(O)OS(=O)(=O)O)[C@@H](O)[C@H]1O` [APS, adenylyl phosphosulfate], in test [4], the VmaxE0 is 1.05 s⁻¹, the “VmaxE0 (two-fold decrease)” value was 611 mM⁻¹ s⁻¹ and the “apparent VmaxE0” value is 0.85 ± 0.04 s⁻¹. Moreover, on APS kinase of E. coli, the Km is 0.25 µM.
